Measured values published in ChEMBL document CHEMBL5247651, “Oxadiazolopyridine Derivatives as Efficacious Mitochondrial Uncouplers in the Prevention of Diet-Induced Obesity” (J Med Chem, 2023).
Calls of active or inactive are those of the source. The calls are words filed in the database; no cut-off is given here.

Tests used:
Mus musculus [1] = test: Anti-obesity activity in high-sugar western diet induced obesity C57BL/6j mouse model assessed as decrease in subcutaneous fat pad weight at 130 mg/kg per day, po administered via gavage daily measured after 3 weeks; type: functional, organism-based
Mus musculus [2] = test: Anti-obesity activity in high-fat diet induced obesity C57BL/6 mouse model assessed as increase in oxygen consumption at 130 mg/kg, po measured upto 4 hrs by indirect calorimetric analysis; type: functional, organism-based
Mus musculus [3] = test: Anti-obesity activity in high-sugar western diet induced obesity C57BL/6j mouse model assessed as reversal of body weight at 130 mg/kg per day, po administered via gavage daily measured after 3 weeks; type: functional, organism-based
Mus musculus [4] = test: Anti-obesity activity in high-sugar western diet induced obesity C57BL/6j mouse model assessed as decrease in serum glucose level at 130 mg/kg per day, po administered measured after 2 weeks; type: functional, organism-based
[5] = Drug distribution in fasted C57BL/6j mouse liver at 10 mg/kg, po measured after 2 hrs by LC-MS/MS analysis; type: ADME, organism-based; settings: in vivo
Mus musculus [6] = test: Anti-obesity activity in high-sugar western diet induced obesity C57BL/6j mouse model assessed as decrease in gonadal white adipose tissue weight at 130 mg/kg per day, po administered via gavage daily measured after 3 weeks; type: functional, organism-based
L6 = test: Induction of mitochondrial respiration in rat L6 cells assessed as fold increase in basal respiration at 25 uM in presence of oligomycin; type: functional, cell-based
[7] = Drug distribution in fasted C57BL/6j mouse liver at 130 mg/kg, po by LC-MS/MS analysis; type: ADME, organism-based; settings: in vivo
Mus musculus [8] = test: Anti-obesity activity in C57BL/6j mouse assessed as effect on plasma free fatty acid level at 130 mg/kg per day, po administered via gavage daily measured after 3 weeks; type: functional, organism-based
[9] = Induction of mitochondrial uncoupling activity in rat L6 cells assessed as increase in oxygen consumption rate measured after 90 mins by agilent Seahorse XF analyzer; type: functional, cell-based
[10] = Drug distribution in fasted C57BL/6j mouse brown adipose tissue at 10 mg/kg, po measured after 2 hrs by LC-MS/MS analysis; type: ADME, organism-based; settings: in vivo
[11] = Drug distribution in fasted C57BL/6j mouse white adipose tissue at 10 mg/kg, po measured after 2 hrs by LC-MS/MS analysis; type: ADME, organism-based; settings: in vivo
Mus musculus [12] = test: Anti-obesity activity in high-sugar western diet induced obesity C57BL/6j mouse model assessed as effect on free fatty acid level at 130 mg/kg per day, po administered via gavage daily measured after 3 weeks by fluorometric analysis; type: functional, organism-based
[13] = Observed apparent volume of distribution in C57BL/6 mouse at 1 mg/kg, iv measured upto 24 hrs by LC/MS-MS analysis; type: ADME, organism-based; settings: in vivo, read-out: Vz
Mus musculus [14] = test: Anti-obesity activity in high-sugar western diet induced obesity C57BL/6j mouse model assessed as decrease in insulin level at 130 mg/kg per day, po administered measured after 2 weeks; type: functional, organism-based
[15] = Cmax in Swiss albino mouse at 10 mg/kg, po administered via gavage measured upto 24 hrs by LC/MS-MS analysis; type: ADME, organism-based; parameters: time < 24 hrs, dose 10 mg/kg, route po; settings: in vivo
[16] = Induction of mitochondrial uncoupling activity in rat L6 cells assessed as increase in oxygen consumption rate at 0.37 to 200 uM measured after 90 mins by agilent Seahorse XF analyzer relative to BAM15; type: functional; settings: dose 0.37-200 µM, 1.5 h
Mus musculus [17] = test: Anti-obesity activity in C57BL/6j mouse assessed as decrease in serum glucose level at 130 mg/kg per day, po administered via gavage daily measured after 3 weeks; type: functional, organism-based
Mus musculus [18] = test: Anti-obesity activity in high-sugar western diet induced obesity C57BL/6j mouse model assessed as decrease in retroperitoneal fat pad weight at 130 mg/kg per day, po administered via gavage daily measured after 3 weeks; type: functional, organism-based
[19] = Half life in Swiss albino mouse at 10 mg/kg, po administered via gavage measured upto 24 hrs by LC/MS-MS analysis; type: ADME, organism-based; settings: in vivo
[20] = Observed volume of distribution at steady state in C57BL/6 mouse at 1 mg/kg, iv measured upto 24 hrs by LC/MS-MS analysis; type: ADME, organism-based; settings: in vivo, read-out: Vdss
Mus musculus [21] = test: Anti-obesity activity in high-sugar western diet induced obesity C57BL/6j mouse model assessed as decrease in body weight at 130 mg/kg per day, po administered for 14 days; type: functional, organism-based; settings: time 14.0 day
[22] = Half life in C57BL/6 mouse at 10 mg/kg, po administered via gavage measured upto 24 hrs by LC/MS-MS analysis; type: ADME, organism-based; settings: in vivo
Mus musculus [23] = test: Anti-obesity activity in high-sugar western diet induced obesity C57BL/6j mouse model assessed as decrease in fat-free lean mass at 130 mg/kg per day, po administered measured after 2 weeks by EchoMRI analysis; type: functional; parameters: scale not given: the % may be the effect or the level left
[24] = Induction of mitochondrial respiration in rat L6 cells assessed as fold increase in basal respiration upto 200 uM; type: functional
Mus musculus [25] = test: Anti-obesity activity in high-sugar western diet induced obesity C57BL/6j mouse model assessed as decrease in fat-free mass body composition at 130 mg/kg per day, po administered measured after 2 weeks by EchoMRI analysis (reference value: 77%); type: functional; parameters: scale not given: the % may be the effect or the level left
Mus musculus [26] = test: Anti-obesity activity in high-sugar western diet induced obesity C57BL/6j mouse model assessed as decrease in muscle weight at 130 mg/kg per day, po administered via gavage daily measured after 3 weeks; type: functional, organism-based
Mus musculus [27] = test: Anti-obesity activity in high-sugar western diet induced obesity C57BL/6j mouse model assessed as food consumption at 130 mg/kg per day, po administered for 14 days ( Rvb = 2.5 +/- 0.5 g/day per mouse); type: functional; settings: time 14 day
Mus musculus [28] = test: Anti-obesity activity in high-fat diet induced obesity C57BL/6 mouse model assessed as increase in energy expenditure at 130 mg/kg, po measured upto 4 hrs by indirect calorimetric analysis; type: functional, organism-based
[29] = Induction of mitochondrial respiration in rat L6 cells assessed as fold increase in basal respiration at 25 uM followed by BAM15 addition; type: functional
Mus musculus [30] = test: Anti-obesity activity in high-fat diet induced obesity C57BL/6 mouse model assessed as increase in carbon dioxide production at 130 mg/kg, po measured upto 4 hrs by indirect calorimetric analysis; type: functional, organism-based
[31] = Half life in C57BL/6 mouse at 1 mg/kg, iv measured upto 24 hrs by LC/MS-MS analysis; type: ADME, organism-based; settings: in vivo
[32] = Apparent permeability across apical to basolateral side in human Caco-2 cells; type: ADME, cell-based
Mus musculus [33] = test: Anti-obesity activity in high-sugar western diet induced obesity C57BL/6j mouse model assessed as decrease in glucose level AUC at 130 mg/kg per day, po administered measured after 10 days in presence of glucose by glucose tolerance test; type: functional, organism-based; settings: time 10.0 day
Mus musculus [34] = test: Anti-obesity activity in high-sugar western diet induced obesity C57BL/6j mouse model assessed as decrease in rectal temperature at 130 mg/kg per day, po administered via gavage daily measured after 1 hr at day 11; type: functional, organism-based
[35] = Apparent permeability across basolateral to apical side in human Caco-2 cells; type: ADME, cell-based
Mus musculus [36] = test: Anti-obesity activity in high-sugar western diet induced obesity C57BL/6j mouse model assessed as effect on fecal triglyceride level at 130 mg/kg per day, po administered via gavage daily measured after 3 weeks by colorimetric analysis; type: functional, organism-based

Question: For `Oc1nc2nonc2cc1Nc1c(F)c(F)c(F)c(F)c1F`, which Activity (Mus musculus [1]) is on record?
Answer: inactive

Question: What about the Activity (Mus musculus [2]) of the same compound?
Answer: Active

Question: And the Activity (Mus musculus [3])?
Answer: Active

Question: What about the Activity (Mus musculus [4]) of the same compound?
Answer: Active

Question: What about the Drug uptake [5] of the same compound?
Answer: Active

Question: And the Activity (Mus musculus [6])?
Answer: Active

Question: And the Activity (L6)?
Answer: Active

Question: And the Drug uptake [7]?
Answer: Active

Question: And the Activity (Mus musculus [8])?
Answer: inactive

Question: And the EC50 [9]?
Answer: 17.1 µM

Question: What about the pEC50 [9] of the same compound?
Answer: 4.8

Question: And the Drug uptake [10]?
Answer: Active

Question: And the Drug uptake [11]?
Answer: Active

Question: And the Activity (Mus musculus [12])?
Answer: inactive

Question: And the Vd [13]?
Answer: 0.07 L/kg

Question: What about the Activity (Mus musculus [14]) of the same compound?
Answer: Active

Question: What about the Cmax [15] of the same compound?
Answer: 57 µM

Question: And the Activity [16]?
Answer: 48%

Question: What about the Activity (Mus musculus [17]) of the same compound?
Answer: Active

Question: And the Activity (Mus musculus [18])?
Answer: inactive

Question: What about the t1/2 [19] of the same compound?
Answer: 4.4 h

Question: What about the Vd [20] of the same compound?
Answer: 0.06 L/kg

Question: What about the Activity (Mus musculus [21]) of the same compound?
Answer: Active

Question: What about the t1/2 [22] of the same compound?
Answer: 1.2 h

Question: And the Activity (Mus musculus [23])?
Answer: 4%

Question: What about the “fold change (FC)” value [24] of the same compound?
Answer: 2

Question: And the Activity (Mus musculus [25])?
Answer: 84%

Question: What about the Activity (Mus musculus [26]) of the same compound?
Answer: inactive

Question: What about the Activity (Mus musculus [27]) of the same compound?
Answer: 2.5 g/day

Question: What about the Activity (Mus musculus [28]) of the same compound?
Answer: Active

Question: And the “fold change (FC)” value [29]?
Answer: 3

Question: And the Activity (Mus musculus [30])?
Answer: Active

Question: What about the half-life [31] of the same compound?
Answer: 1.15 h

Question: And the Papp A→B [32]?
Answer: 12.4 ×10⁻⁶ cm/s

Question: And the Activity (Mus musculus [33])?
Answer: Active

Question: And the Activity (Mus musculus [34])?
Answer: Active

Question: And the Papp B→A [35]?
Answer: 1.6 ×10⁻⁶ cm/s

Question: What about the Activity (Mus musculus [36]) of the same compound?
Answer: inactive
